We go through eight molecules from PubChem BioAssay (NCI).

Among the test systems are EKVX NSCLC; HCT-116 colon; HL-60(TB) leukemia; IGROV1 ovarian; KM12 colon; MALME-3M melanoma; RXF 393 renal; SF-295 CNS; SK-OV-3 ovarian; SNB-75 CNS.
Assay in all cases: NCI tumour cell line growth inhibition, 48 h

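Each compound was tested at five concentrations against cells in 96-well plates for 48 hours. GI50 = concentration required for 50% inhibition of growth. The concentration for full growth arrest is given as TGI.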

Turning to `C=C1C[C@H](O)[C@H](Br)C(C)(C)[C@@]12CCC(C)=C(Cl)C2`, the GI50 in the assay with EKVX NSCLC is 0.0371 µM; in the assay with HCT-116 colon, 0.32 µM; in the assay with HL-60(TB) leukemia it was 0.206 µM; in the assay with IGROV1 ovarian, 0.25 µM; in the assay with KM12 colon, 0.311 µM; in the assay on MALME-3M melanoma, 0.31 µM. In addition, the GI50 in the assay with RXF 393 renal is 0.35 µM; with SF-295 CNS, 0.105 µM; in the assay on SK-OV-3 ovarian, 0.297 µM; with SNB-75 CNS it was 0.16 µM. Besides, the TGI stood at 1.37 µM in the assay with EKVX NSCLC; 0.761 µM with HL-60(TB) leukemia; 11.7 µM in the assay on IGROV1 ovarian; 2.11 µM in the assay with KM12 colon; 2.3 µM with MALME-3M melanoma; 4.12 µM in the assay on RXF 393 renal. Also, the TGI in the assay on SF-295 CNS amounted to 1.69 µM; with SK-OV-3 ovarian it was 6.41 µM; in the assay with SNB-75 CNS, 0.785 µM.

Turning to `Cc1ccc(S(=O)(=O)N2CCC2c2ccccc2)cc1` (centres undefined), the TGI in the assay with EKVX NSCLC is > 100 µM; in the assay with HCT-116 colon it was > 100 µM; in the assay with HL-60(TB) leukemia it was 40.6 µM; with IGROV1 ovarian it was > 100 µM; with KM12 colon, > 100 µM; with MALME-3M melanoma it was > 100 µM. The TGI in the assay with RXF 393 renal, in the assay on SF-295 CNS, in the assay on SK-OV-3 ovarian and with SNB-75 CNS was > 100 µM in each case.

`COC(=O)[C@]12CC[C@@H](C)[C@H](C)[C@@H]1C1=CC[C@@H]3[C@@]4(C)C[C@@H](O)[C@H](O)[C@@](C)(CO)[C@@H]4[C@H](O)C[C@@]3(C)[C@]1(C)CC2`: the GI50 in the assay with EKVX NSCLC is 13.4 µM; with HCT-116 colon it was 11.1 µM; in the assay on HL-60(TB) leukemia it was 9.1 µM; in the assay on IGROV1 ovarian it was 12.4 µM; in the assay with KM12 colon it was 12.3 µM; in the assay on MALME-3M melanoma, 13 µM. Besides, the GI50 in the assay on RXF 393 renal was 9.32 µM; in the assay on SF-295 CNS it was 15 µM; with SK-OV-3 ovarian, 19.4 µM; in the assay on SNB-75 CNS, 12.3 µM. The TGI with EKVX NSCLC was 31.4 µM; in the assay on HCT-116 colon it was 26.4 µM; in the assay on HL-60(TB) leukemia, 30.3 µM; in the assay on IGROV1 ovarian, 29.4 µM; in the assay on KM12 colon, 26.4 µM; in the assay with MALME-3M melanoma it was 32 µM. Also, the TGI in the assay on RXF 393 renal was 23.1 µM; in the assay with SF-295 CNS it was 35.4 µM; with SK-OV-3 ovarian, 33.5 µM; in the assay with SNB-75 CNS, 28.1 µM.

As to `O=C(Nc1cccc(C(F)(F)F)c1)Nc1cccc(C(F)(F)F)c1`, the GI50 in the assay with EKVX NSCLC is 0.983 µM; in the assay with HCT-116 colon it was 0.462 µM; in the assay on HL-60(TB) leukemia, 1.84 µM; with IGROV1 ovarian, 0.868 µM; in the assay with KM12 colon, 0.444 µM; with MALME-3M melanoma it was 1.36 µM. Further, the GI50 in the assay on RXF 393 renal is 1.49 µM; in the assay with SF-295 CNS it was 0.323 µM; in the assay on SK-OV-3 ovarian, 1.89 µM; in the assay on SNB-75 CNS, 3.49 µM. Moreover, the TGI in the assay on EKVX NSCLC was determined as 7.88 µM; with HCT-116 colon, 2.76 µM; with HL-60(TB) leukemia it was 5.86 µM; with IGROV1 ovarian, 10.3 µM; in the assay with KM12 colon it was 3.19 µM; in the assay with MALME-3M melanoma it was 3.92 µM. In addition, the TGI with RXF 393 renal amounted to 4.35 µM; with SF-295 CNS it was 1.57 µM; with SK-OV-3 ovarian, 6.34 µM; in the assay with SNB-75 CNS it was 31.7 µM.

On to `CCNC(=O)C#Cc1ccc2c(C(=Nc3ccc(CN(C)C)cc3)c3ccccc3)c(O)[nH]c2c1`, for which the GI50 with EKVX NSCLC is 0.47 µM; in the assay with HCT-116 colon it was 0.0147 µM; in the assay on HL-60(TB) leukemia it was 0.00976 µM; with IGROV1 ovarian, 0.0511 µM; in the assay with KM12 colon, 0.0323 µM; with MALME-3M melanoma it was 0.00358 µM. For the same molecule, the GI50 in the assay on RXF 393 renal is 0.123 µM; in the assay with SF-295 CNS it was 0.249 µM; in the assay with SK-OV-3 ovarian it was 1.86 µM; in the assay with SNB-75 CNS, 0.75 µM. Further, the TGI in the assay with EKVX NSCLC is > 10 µM; in the assay on HCT-116 colon, 1.07 µM; in the assay with HL-60(TB) leukemia, 0.932 µM; with IGROV1 ovarian, > 3.29 µM; in the assay on KM12 colon it was > 10 µM; in the assay with MALME-3M melanoma it was 0.0268 µM. For the same molecule, the TGI in the assay with RXF 393 renal is 0.703 µM; in the assay with SF-295 CNS, 3.31 µM; in the assay on SK-OV-3 ovarian, > 10 µM; in the assay with SNB-75 CNS, 2.21 µM.

On to `COc1cc(-c2nc3sccn3c2-c2ccnc(NCCNS(=O)(=O)c3ccc(F)cc3)n2)ccc1F`, for which the GI50 in the assay with EKVX NSCLC was 3.4 µM; in the assay on HCT-116 colon it was 0.362 µM; in the assay on HL-60(TB) leukemia, 3.4 µM; with IGROV1 ovarian it was 1.69 µM; in the assay on KM12 colon, 1.9 µM; in the assay with MALME-3M melanoma, 2.07 µM. Moreover, the GI50 in the assay with RXF 393 renal is 0.75 µM; with SF-295 CNS, 2.87 µM; with SK-OV-3 ovarian, 3.26 µM; with SNB-75 CNS it was 1.54 µM. The TGI with EKVX NSCLC was > 100 µM; in the assay with HCT-116 colon, > 100 µM; in the assay with HL-60(TB) leukemia, > 100 µM; in the assay on IGROV1 ovarian, > 100 µM; in the assay on KM12 colon, > 100 µM; in the assay with MALME-3M melanoma, 7.38 µM. The TGI with RXF 393 renal was 8.2 µM; with SF-295 CNS, > 100 µM; in the assay with SK-OV-3 ovarian it was > 100 µM; in the assay on SNB-75 CNS, > 100 µM.

For the molecule `CN1CCN(C(=O)COc2ccc(C34CC5CC(CC(C5)C3)C4)cc2)CC1`, the GI50 in the assay on EKVX NSCLC was 24.6 µM; in the assay with HCT-116 colon, 13.9 µM; with HL-60(TB) leukemia, 4.7 µM; with IGROV1 ovarian it was 15 µM; in the assay with KM12 colon it was 14.8 µM; in the assay on MALME-3M melanoma, 7.64 µM. The GI50 with RXF 393 renal was 7.44 µM; in the assay on SF-295 CNS, 13.5 µM; in the assay with SK-OV-3 ovarian it was 14 µM; in the assay with SNB-75 CNS, 14.1 µM. For the same molecule, the TGI in the assay on EKVX NSCLC is > 100 µM; with HCT-116 colon it was 26.9 µM; in the assay on HL-60(TB) leukemia, 23.2 µM; in the assay with IGROV1 ovarian, 39.2 µM; in the assay with KM12 colon it was 32.4 µM; with MALME-3M melanoma, 22.3 µM. Also, the TGI turned out to be 21.1 µM in the assay with RXF 393 renal, 27.8 µM in the assay on SF-295 CNS, 30.4 µM with SK-OV-3 ovarian and 29.3 µM with SNB-75 CNS.

As to `O=S1C(=c2ccc(=C3Sc4ccccc4S3)cc2)Sc2ccccc21` (centres undefined), the TGI in the assay on EKVX NSCLC was 34.2 µM; in the assay with HCT-116 colon, > 56.6 µM; in the assay with HL-60(TB) leukemia, > 100 µM; in the assay on IGROV1 ovarian it was > 95.5 µM; with KM12 colon, 31.4 µM; in the assay on MALME-3M melanoma it was > 100 µM. The TGI in the assay with RXF 393 renal is > 57.7 µM; with SF-295 CNS, 31.2 µM; in the assay with SK-OV-3 ovarian, 37 µM; with SNB-75 CNS, 35.8 µM.
